What all share (assay type): cell-based
One test concerns U2OS cells. Description: Senescence analysis (SA-β-gal) in U2OS cells. Here is the method: (§1) Cells were plated at a concentration of 25,000 per well in a 4-well chamber slides (Lab-Tek) and treated for seven days with drug and stained for senescence-associated β-galactosidase (Cell Signaling kit #9860). Cell number was quantitated by DAPI staining and β-galactosidase staining quantitated as a proportion of total cells.

Test [1] relates to LS8817 cells. In words: ATRX foci per cell by immunofluorescence in LS8817 cells. As for the experimental part: (§2) Cells were washed twice with PBS and fixed with 4% paraformaldehyde at room temperature for 20 minutes. Cells were again washed twice with PBS and treated with 0.5% triton X-100 in PBS. Cells were again washed twice with PBS and blocked in 5% BSA in PBS for 30 minutes at room temperature. Cells were incubated with anti-ATRX antibody, obtained from Bethyl, Cat No. A301-045A, diluted at 1:2000 in PBS (stock is provided at 1 mg/ml) overnight at 4 degrees Celsius. The following day, cells were washed twice with PBS and incubated with Alexa Fluor-488 anti-rabbit secondary diluted at 1:500 in PBS (stock was provided at 2 mg/ml) for one hour at room temperature. Cells were washed twice with PBS and incubated with 0.1 μg/ml DAPI for 5 minutes at room temperature. Cells were washed three times with PBS and slides were mounted in Vectashield fluorescence mounting media. Slides were imaged using a Zeiss Axioplan 2 Upright Microscope.

Test [2] concerns LS8817 cells. In words: Senescence-associated β-galactosidase / senescence analysis in LS8817 cells. The following applies: for accumulation of SA-β-gal staining: 100 μM doxorubicin for five days.
For test [3], the system named is LS8107 cells. Description: ATRX foci per cell by immunofluorescence in LS8107 cells. The following applies: PD0332991 followed by shMDM2, compared to untreated or PD0332991 alone. As for the experimental part:
as §2

The test system of test [4] is LS8107 cells. In words: Senescence analysis (SA-β-gal) in LS8107 cells. As for the experimental part:
as §1

`CC(=O)c1c(C)c2cnc(Nc3ccc(N4CCNCC4)cn3)nc2n(C2CCCC2)c1=O` [PD0332991]: the “cell state (quiescent or senescent) on CDK4 inhibition, by SA-β-gal” value in the test on U2OS cells (U2OS cells expressing exogenous ATRX) is reported as “entering a senescent state”. For the same compound, the “cell state (quiescent or senescent) on CDK4 inhibition” value in the test on U2OS cells (U2OS cells that do not express endogenous ATRX) is recorded as “entering a quiescent state versus a senescent state”. The “average number of ATRX foci per cell” value in the test with LS8817 cells [1] (LS8817 cells, PD0332991 1 μM or 0.1 μM) is “significant increase”. In addition, the “number of ATRX foci per cell” value is on record as “prevented an increase” in the test with LS8817 cells [1] (LS8817 cells, PD0332991 in the presence of exogenous MDM2 (tet-on-MDM2-Flag, doxycycline), compared to PD0332991 alone) and “significant increase” with LS8107 cells [3]. In addition, the “cell state (quiescent or senescent)” value was “enter a senescent state” with LS8817 cells [2] (LS8817 cells, 1 μM or 0.1 μM) and “entered a quiescent state” in the test on LS8107 cells [4] (CDK4 inhibitor alone). Further, the “accumulation of SA-β-gal” value in the test with LS8107 cells [4] (PD0332991 followed by shMDM2) is listed as “accumulation of SA-β-gal”.
Consider `COc1cccc2c1C(=O)c1c(O)c3c(c(O)c1C2=O)C[C@@](O)(C(=O)CO)C[C@@H]3O[C@H]1C[C@H](N)[C@H](O)[C@H](C)O1` [doxorubicin], for which the “ATRX foci in cells expressing shATRX” value with LS8817 cells [1] (LS8817 cells expressing shATRX, 100 μM doxorubicin for five days) is listed as “not observed”. Further, the “average number of ATRX foci per cell” value with LS8817 cells [1] (LS8817 cells, 100 μM doxorubicin for five days, control cells about 8) was “about 35”. Moreover, the “accumulation of SA-β-gal staining” value in the test with LS8817 cells [2] (LS8817 cells expressing shATRX) was “did not significantly accumulate”; with LS8817 cells [2] (LS8817 cells expressing shSCR), “significantly accumulated”.

Source of the values: patent publication US20160109430A1, “METHODS FOR DRUG DISCOVERY” (Memorial Sloan-Kettering Cancer Center, priority 2014, published 2016).
